# Where two headings read alike, the source gives them in different places.
# Tests used:
# [1] = Solubility in buffers of various pH; format: physicochemical; details: buffer
# PfCDPK1 = PfCDPK1 (Plasmodium falciparum (isolate 3D7), UniProt P62344); assay: biochemical
# [2] = test system: human lymphocyte (CRL8155); assay: Growth inhibition of human cell line CRL8155
# [3] = test system: human promyelocytic leukemia (HL-60); assay: Growth inhibition of human cell line HL-60
# PfCDPK4 = PfCDPK4 (Plasmodium falciparum (isolate 3D7), UniProt Q8IBS5); assay: biochemical
# CpCDPK1 = CpCDPK1 (Cryptosporidium parvum (strain Iowa II), UniProt A3FQ16); assay: biochemical; format: biochemical
# Sequence of CpCDPK1 (A3FQ16 1-538): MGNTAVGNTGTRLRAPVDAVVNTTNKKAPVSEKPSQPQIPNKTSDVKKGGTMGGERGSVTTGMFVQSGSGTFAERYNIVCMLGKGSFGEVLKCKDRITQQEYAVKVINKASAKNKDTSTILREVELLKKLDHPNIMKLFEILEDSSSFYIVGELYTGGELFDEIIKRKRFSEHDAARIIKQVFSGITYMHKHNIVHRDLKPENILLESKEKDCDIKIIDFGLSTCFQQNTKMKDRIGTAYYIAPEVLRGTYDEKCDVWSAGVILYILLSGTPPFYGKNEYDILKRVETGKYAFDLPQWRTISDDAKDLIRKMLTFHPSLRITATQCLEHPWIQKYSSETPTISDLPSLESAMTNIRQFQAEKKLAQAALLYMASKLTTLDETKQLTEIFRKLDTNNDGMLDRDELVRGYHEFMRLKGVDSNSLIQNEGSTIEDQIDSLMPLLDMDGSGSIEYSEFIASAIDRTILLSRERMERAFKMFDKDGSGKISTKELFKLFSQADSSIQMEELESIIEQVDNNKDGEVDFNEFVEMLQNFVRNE
# TgCDPK1 = TgCDPK1 (Toxoplasma gondii, UniProt Q9BJF5); format: biochemical
# Sequence of TgCDPK1 (Q9BJF5 1-507): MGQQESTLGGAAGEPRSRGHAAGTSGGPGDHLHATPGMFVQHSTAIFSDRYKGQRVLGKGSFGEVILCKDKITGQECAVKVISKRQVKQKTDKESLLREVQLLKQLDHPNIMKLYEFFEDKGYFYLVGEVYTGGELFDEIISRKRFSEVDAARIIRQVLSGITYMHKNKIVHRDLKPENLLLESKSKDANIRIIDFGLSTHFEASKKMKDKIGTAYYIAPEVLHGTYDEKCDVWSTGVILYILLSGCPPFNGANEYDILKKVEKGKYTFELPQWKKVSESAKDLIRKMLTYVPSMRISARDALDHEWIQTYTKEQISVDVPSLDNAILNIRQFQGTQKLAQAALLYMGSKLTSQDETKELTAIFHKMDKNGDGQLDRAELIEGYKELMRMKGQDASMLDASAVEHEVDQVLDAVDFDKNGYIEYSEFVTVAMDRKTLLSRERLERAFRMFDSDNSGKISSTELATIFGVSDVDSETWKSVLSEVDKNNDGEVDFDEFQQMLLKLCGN
# [4] = Blood levels after oral gavage dosing of mice (LC-MS); details: mouse, in vivo, po
# [5] = test system: colorectal carcinoma (HC 2998); assay: Growth inhibition of human cell line HC 2998
# glioma derived (SF539) = assay: Growth inhibition of human cell line SF539
# [6] = pH 6.5, aqueous buffer, read-out: Experimental Solubility pH 6.5
# [7] = Table 8, read-out: IC50 (μM) CpCDPK1
SMILES,"solubility [1, 6] [µM]",EC50 (PfCDPK1) [nM],"Cell Toxicity CRL8155, % at 10 μM [2]","Cell Toxicity CRL8155, % at 30 μM [2] [% at 30 μM]","Cell Toxicity HL60, % at 10 μM [3]","Cell Toxicity HL60, % at 30 μM [3]",EC50 (PfCDPK4) [nM],further results
Nc1ncnc2c1c(-c1ccc3cc(O)ccc3c1)nn2CC1CCNCC1 [Compound 119],50,76.9,<30% at 10 μM,<30,<30% at 10 μM;,<30% at 30 μM,7.3,
"CCOc1ccc2cc(-c3nc(C(C)C)n4ccnc(N)c34)ccc2c1 [Compound 10, 1-(6-ethoxynaphthalen-2-yl)-3-isopropylimidazo[1,5-a]pyrazin-8-amine]",29,380,,,,,328,IC50 (CpCDPK1; [7]): 0.0336 µM; IC50 (TgCDPK1; read-out: IC50 (μM) TgCDPK1): 0.078 µM; AUC [4]: 112 µM·h; Cmax [4]: 26000 nM; Tmax [4]: 2.5 h
CC(C)COc1ccc2cc(-c3nn(CC4CCN(C)CC4)c4ncnc(N)c34)ccc2c1 [Compound 124],41,119,,,,,101,AUC [4]: 6.65 µM·h; Cmax [4]: 1840 nM; Tmax [4]: 3 h
CCOc1ccc2cc(-c3nn(C4CCN(C)CC4)c4ncnc(N)c34)ccc2c1 [Compound 148],56,,,<30,<30% at 10 μM,49% at 30 μM;,39,
CC(C)(C)c1nc(-c2ccc3ccccc3c2)c2c(N)nccn12 [Compound 84],26,61.3,<30% at 10 μM,48,<30% at 10 μM,50% at 30 μM,55.1,
"CC(C)(C)n1nc(-c2ccc3ccccc3c2)c2c(N)ncnc21 [Compound 2, 1-tert-butyl-3-(naphthalen-2-yl)-1H-pyrazolo[3,4-d]pyrimidin-4-amine]",2.4,1250,,<30,,<30% at 30 μM,480,"solubility ([1]; aqueous buffer, pH 2.0, read-out: Experimental Solubility pH 2.0): 43 µM; solubility ([1]; pH 7.4, aqueous buffer, read-out: Experimental Solubility pH 7.4): 1.5 µM; Cell Toxicity HCC2998, % at 25 μM [5]: <30% at 25 μM; Cell Toxicity CRL8155, % at 25 μM [2]: 37% at 25 μM;; Cell Toxicity HL60, % at 25 μM [3]: <30% at 25 μM;; Cell Toxicity SF539, % at 25 μM (glioma derived (SF539)): <30% at 25 μM"
"CC(C)n1nc(-c2cnc3ccccc3c2)c2c(N)ncnc21 [Compound 7t, 1-isopropyl-3-(quinolin-3-yl)-1H-pyrazolo[3,4-d]pyrimidin-4-amine]",,1360,<30% at 10 μM,,<30% at 10 μM,,169,"Cell Toxicity HCC2998, % at 10 μM [5]: <30% at 10 μM; Cell Toxicity SF539, % at 10 μM (glioma derived (SF539)): <30% at 10 μM"
Cc1cccc2[nH]c(-c3nc(C(C)(C)C)n4ccnc(N)c34)cc12 [Compound 83],36,1080,<30% at 10 μM,46,37% at 10 μM,38% at 30 μM,371,
"Nc1ncnc2c1c(Cc1cccc3ccccc13)nn2CCC1CCNCC1 [Compound 5i, 3-(naphthalen-1-ylmethyl)-1-(2-(piperidin-4-yl)ethyl)-1H-pyrazolo[3,4-d]pyrimidin-4-amine]",,,<30% at 10 μM;,<30,<30% at 10 μM;,<30% at 30 μM,603,"IC50 (CpCDPK1; read-out: CpCDPK1 IC50): 0.034 µM; Cell Toxicity HCC2998, % at 10 μM [5]: <30% at 10 μM; IC50 (TgCDPK1; read-out: TgCDPK1 IC50): 0.052 µM; Cell Toxicity SF539, % at 10 μM (glioma derived (SF539)): <30% at 10 μM"
"Nc1ncnc2c1c(Cc1cccc3ccccc13)nn2C1CCNCC1 [Compound 5g, 3-(naphthalen-1-ylmethyl)-1-(piperidin-4-yl)-1H-pyrazolo[3,4-d]pyrimidin-4-amine]",,,<30% at 10 μM,,<30% at 10 μM,,,"IC50 (CpCDPK1; read-out: IC50 (μM) CpCDPK1): 0.056 µM; Cell Toxicity HCC2998, % at 10 μM [5]: <30% at 10 μM; IC50 (TgCDPK1; read-out: TgCDPK1 IC50): 0.059 µM; Cell Toxicity SF539, % at 10 μM (glioma derived (SF539)): <30% at 10 μM"
"Nc1ncnc2c1c(-c1ccc3ccccc3c1)nn2CC1CCNCC1 [Compound 147, 3-(naphthalen-2-yl)-1-(piperidin-4-ylmethyl)-1H-pyrazolo[3,4-d]pyrimidin-4-amine]",79,66.8,,<30,33% at 10 μM,60% at 30 μM;,17.2,
"Cn1ccc2cc(-c3nc(C(C)(C)C)n4ccnc(N)c34)ccc21 [Compound 70, 3-tert-butyl-1-(1-methyl-1H-indol-5-yl)imidazo[1,5-a]pyrazin-8-amine]",5,53.8,<30% at 10 μM,,40% at 10 μM,,83.4,
Nc1ncnc2c1c(-c1ccc3ncccc3c1)nn2CC1CCNCC1 [Compound 125],54,1090,,,,,113,
"COc1ccc2cc(-c3nc(C(C)(C)C)n4ccnc(N)c34)ccc2c1 [Compound 71, 3-tert-butyl-1-(6-methoxynaphthalen-2-yl)imidazo[1,5-a]pyrazin-8-amine]",9,67.6,<30% at 10 μM,,<30% at 10 μM,,65.2,
"CC(C)n1nc(-c2ccc3ccccc3c2)c2c(N)ncnc21 [Compound 7p, 1-isopropyl-3-(naphthalen-2-yl)-1H-pyrazolo[3,4-d]pyrimidin-4-amine]",,380,,,35% at 10 μM,,142,"Cell Toxicity HCC2998, % at 25 μM [5]: <30% at 25 μM; GI50 ([5]; read-out: GI50 (μM) HCC2998, human cell line HCC2998): ~10 µM; Cell Toxicity CRL8155, % at 25 μM [2]: 46% at 25 μM; GI50 ([2]; read-out: GI50 (μM) CRL8155, human cell line CRL8155): > 10 µM; Cell Toxicity HL60, % at 25 μM [3]: 50% at 25 μM;; GI50 ([3]; read-out: GI50 (μM) HL60, human cell line HL60): > 10 µM; Cell Toxicity SF539, % at 10 μM (glioma derived (SF539)): 54% at 10 μM; Cell Toxicity SF539, % at 25 μM (glioma derived (SF539)): 84% at 25 μM;; GI50 (glioma derived (SF539); read-out: GI50 (μM) SF539, human cell line SF539): > 10 µM"
"CC(C)n1nc(-c2ccc(Cl)cc2)c2c(N)ncnc21 [Compound 7a, 3-(4-chlorophenyl)-1-isopropyl-1H-pyrazolo[3,4-d]pyrimidin-4-amine]",45,,,,,,,IC50 (CpCDPK1; [7]): 0.216 µM; IC50 (CpCDPK1; read-out: CpCDPK1 IC50): 0.22 µM; IC50 (TgCDPK1; read-out: IC50 (μM) TgCDPK1): 0.018 µM
"CC(C)n1nc(-c2ccc(Cl)c(Cl)c2)c2c(N)ncnc21 [Compound 7c, 3-(3,4-dichlorophenyl)-1-isopropyl-1H-pyrazolo[3,4-d]pyrimidin-4-amine]",,,,,,,,"Cell Toxicity HCC2998, % at 25 μM [5]: <30% at 25 μM; Cell Toxicity CRL8155, % at 25 μM [2]: 54% at 25 μM; Cell Toxicity HL60, % at 25 μM [3]: 51% at 25 μM; Cell Toxicity SF539, % at 25 μM (glioma derived (SF539)): 31% at 25 μM"
"CS(=O)(=O)N1CCC(n2nc(Cc3cccc4ccccc34)c3c(N)ncnc32)CC1 [Compound 5p, 1-(1-(methylsulfonyl)piperidin-4-yl)-3-(naphthalen-1-ylmethyl)-1H-pyrazolo[3,4-d]pyrimidin-4-amine]",,,,,,,,"Cell Toxicity HCC2998, % at 25 μM [5]: <30% at 25 μM; Cell Toxicity CRL8155, % at 25 μM [2]: <30% at 25 μM; Cell Toxicity HL60, % at 25 μM [3]: <30% at 25 μM; Cell Toxicity SF539, % at 25 μM (glioma derived (SF539)): <30% at 25 μM"
"CCN1CCC(Cn2nc(Cc3cccc4ccccc34)c3c(N)ncnc32)CC1 [Compound 5n, 1-((1-ethylpiperidin-4-yl)methyl)-3-(naphthalen-1-ylmethyl)-1H-pyrazolo[3,4-d]pyrimidin-4-amine]",,,<30% at 10 μM,,<30% at 10 μM,,,"Cell Toxicity HCC2998, % at 10 μM [5]: <30% at 10 μM; Cell Toxicity SF539, % at 10 μM (glioma derived (SF539)): <30% at 10 μM"
CCOc1ccc2cc(-c3nn(C(C)(C)C)c4ncnc(N)c34)ccc2c1 [Compound 137],1,2430,,,,,942,
Cn1ncc2cc(-c3nn(CC4CCNCC4)c4ncnc(N)c34)ccc21 [Compound 121],43,702,<30% at 10 μM,,<30% at 10 μM,,146,AUC [4]: 0.445 µM·h; Cmax [4]: 190 nM; Tmax [4]: 1.5 h
COc1ccc2cc(-c3nn(C(C)(C)C)c4ncnc(N)c34)ccc2c1 [Compound 135],3,668,,,,,137,
CCOc1ccc2cc(-c3nn(C4CCN(CC)CC4)c4ncnc(N)c34)ccc2c1 [Compound 149],75,,<30% at 10 μM,<30,,<30% at 30 μM,81.6,
Cc1cc(-c2nn(CC3CCNCC3)c3ncnc(N)c23)ccc1-c1ccccc1 [Compound 118],40,511,,,,,512,
Cn1ccc2cc(-c3nn(C(C)(C)C)c4ncnc(N)c34)ccc21 [Compound 139],0.69,1150,,,,,566,

# From patent US9765037B2, “Compositions and methods for treating toxoplasmosis, cryptosporidiosis, and other apicomplexan protozoan related diseases” (University of Washington Through its Center for …, priority 2010, dated 2017)
